Measured values published in article PMC7084598, “Design, Synthesis, and Biological Evaluation of Two Series of Novel A-Ring Fused Steroidal Pyrazines as Potential Anticancer Agents” (International Journal of Molecular Sciences, 2020).

Columns and labels:
[1] = test system: HepG2 (liver hepatocellular carcinoma); test: CCK-8 antiproliferative assay, HepG2; assay type: cell-based; conditions: Homo sapiens, 48 h, CCK8, mean of three independent experiments, NA = no activity, read-out: Inhibitory Ratio (Mean% ± SD%) HepG2
Description: (§1) All the thirty-six target derivatives (5a–5f, 10a–10o, and 12a–12o) were screened for antiproliferative activities against three human cancer cell lines (MCF-7, PC-3, and HepG2) and cytotoxicity on a normal human cell (THLE-2) at the concentration of 20 μM by using the CCK8 assay.
(§2) Thirty-six novel steroidal A-ring fused pyrazine hybrids were evaluated by Cell Counting Kit-8 (CCK-8) assays, to evaluate their in vitro antiproliferative activities on three human cancer cell lines and one normal cell line: MCF-7 (breast carcinoma), PC-3 (prostate carcinoma), HepG2 (liver hepatocellular carcinoma), and THLE-2 ([…]), with 5-fluorouracil as the positive control.
(§3) Cells (3 × 10^3 cells per well) seeded into 96-well plates (Costar, Shanghai, China) were incubated with Ham’s F-12K containing various concentrations of steroidal pyrazines (5a–5f, 10a–10o, and 12a–12o) for 48 h at 37 °C and 5% COThen, 10 μL of CCK-8 reagent (Beyotime, Shanghai, China) dissolved in PBS (Phosphate buffered saline) was added per well, and continuously incubated at 37 °C for 1 h. Finally, the absorbance of samples taken from each well was measured on a microplate reader at 450 nm. The antiproliferative activities were expressed as inhibitory activity and IC50 values calculated using GraphPad Software 5.0 (GraphPad Software, San Diego, CA, USA), which were the mean values of three independent tests and are shown in Table 1 and Table 2, respectively. The formula used for cell inhibitory rates was (1 - sample absorption/vehicle absorption) × 100%.

[2] = test system: PC-3 (prostate carcinoma); test: CCK-8 antiproliferative assay, PC-3; assay type: cell-based, human; conditions: Homo sapiens, 48 h, 20 μM, 48 h, CCK8; mean of three independent experiments; NA = no activity; read-out: Inhibitory Ratio (Mean% ± SD%) PC-3
Description: as §1, §2, §3

[3] = test system: MCF-7 (breast carcinoma); test: CCK-8 antiproliferative assay, MCF-7; assay type: cell-based; conditions: Homo sapiens, MCF7, 48 h, CCK8, mean of three independent experiments, NA = no activity, read-out: Inhibitory Ratio (Mean% ± SD%) MCF-7
Description: as §1, §2, §3

Compound: CC1(C)C2=CCC3C(CC[C@@]4(C)C3CC[C@@H]4C(=O)O)[C@@]2(C)Cc2nccnc21 (stereo partly shown) [Compound 5a]
- inhibition at 20 µM [1]: 17.9 ± 1.16%
- inhibition at 20 µM [2]: 25.1 ± 2.64%
- melting point: 270 to 292 °C
- inhibition at 20 µM [3]: 3.09 ± 1.05%
